Assay results from ChEMBL document CHEMBL3885861, “Open TG-GATES”.

Species on record: Rattus norvegicus
Test: Open TG-GATES - Regimen: Single
Type: toxicity, organism-based, Sprague-Dawley
Set-up: regimen Single, gender Male, age 6 weeks
Details: in vivo, po, route gavage; for APTT / Bas / Eos / Fbg / Hb / Ht / MCH / MCHC / MCV / Mono / PT / Plat / RBC / Ret / WBC: tissue Blood; for ALT / CRE / DBIL / GLC / IP / K / LDH / Na / PL / RALB / TBIL / TC / TG / TP / gamma-GTP / ALP: tissue Plasma
[1] = 200 mg/kg, 3 h, dose level Middle
[2] = 200 mg/kg, 6 h, dose level Middle
[3] = 200 mg/kg, 9 h, dose level Middle
[4] = 200 mg/kg, 24 h, dose level Middle
[5] = 600 mg/kg, 3 h, dose level High
[6] = 600 mg/kg, 6 h, dose level High
[7] = 600 mg/kg, 9 h, dose level High
[8] = 600 mg/kg, 24 h, dose level High

For `CCN(CC)C(=S)SSC(=S)N(CC)CC`, the TERMINAL_BW [1] was 213.2 g, the APTT [1] was 21.8 s and the Bas [1] was 0%. The Eos [1] was 0.8%, the Fbg [1] was 313.2 mg/dL and the Hb [1] was 13.4 g/dL. The Ht [1] was 41.1%, the MCH [1] was 20.2 pg and the MCHC [1] was 32.6%. For the same molecule, the MCV [1] was 62.1 fL, the Mono [1] was 4.2% and the PT [1] was 16.2 s. The Plat [1] was 124 x10_4/uL, the RBC [1] was 662.4 x10_4/ul and the Ret [1] was 7.4%. It also gave a WBC [1] of 77.1 x10_2/uL, an ALT [1] of 40.6 IU/L and a CRE [1] of 0.1 mg/dL. The DBIL [1] was 0 mg/dL, the GLC [1] was 181.2 mg/dL and the IP [1] was 9.4 mg/dL. It also gave a K [1] of 4.1 meq/L, an LDH [1] of 215.4 IU/L and a Na [1] of 142 meq/L. It also gave a PL [1] of 147.8 mg/dL, an RALB [1] of 3.2 g/dL and a TBIL [1] of 0.004 mg/dL. The TC [1] was 80.8 mg/dL, the TG [1] was 84.2 mg/dL and the TP [1] was 5.7 g/dL. The gamma-GTP [1] was 1 IU/L, the TERMINAL_BW [2] was 210.4 g and the APTT [2] was 22.1 s. It also gave a Bas [2] of 0%, an Eos [2] of 0.4% and a Fbg [2] of 299.4 mg/dL. For the same molecule, the Hb [2] was 13 g/dL, the Ht [2] was 40.2% and the MCH [2] was 20.2 pg. The MCHC [2] was 32.3%, the MCV [2] was 62.4 fL and the Mono [2] was 2.2%. The PT [2] was 15.9 s, the Plat [2] was 123.4 x10_4/uL and the RBC [2] was 644.6 x10_4/ul. The Ret [2] was 7.2%, the WBC [2] was 67.3 x10_2/uL and the ALP [2] was 1309.6 IU/L. It also gave an ALT [2] of 37.2 IU/L, a CRE [2] of 0.1 mg/dL and a DBIL [2] of 0.004 mg/dL. The GLC [2] was 194 mg/dL, the IP [2] was 9.6 mg/dL and the K [2] was 4.1 meq/L. The LDH [2] was 192 IU/L, the Na [2] was 141 meq/L and the PL [2] was 125.4 mg/dL. It also gave an RALB [2] of 3.1 g/dL, a TBIL [2] of 0.012 mg/dL and a TC [2] of 73.2 mg/dL. It also gave a TG [2] of 33 mg/dL, a TP [2] of 5.4 g/dL and a gamma-GTP [2] of 0.8 IU/L. For the same molecule, the TERMINAL_BW [3] was 213.7 g, the APTT [3] was 22.8 s and the Bas [3] was 0%. For the same molecule, the Eos [3] was 0.6%, the Fbg [3] was 297 mg/dL and the Hb [3] was 13.1 g/dL. The Ht [3] was 40.6%, the MCH [3] was 20 pg and the MCHC [3] was 32.3%. It also gave an MCV [3] of 61.8 fL, a Mono [3] of 2% and a PT [3] of 15.9 s. The Plat [3] was 119.2 x10_4/uL, the RBC [3] was 659 x10_4/ul and the Ret [3] was 7.8%. For the same molecule, the WBC [3] was 81.1 x10_2/uL, the ALP [3] was 1366 IU/L and the ALT [3] was 34.6 IU/L. For the same molecule, the CRE [3] was 0.1 mg/dL, the DBIL [3] was 0.012 mg/dL and the GLC [3] was 195 mg/dL. The IP [3] was 9.1 mg/dL, the K [3] was 4.1 meq/L and the LDH [3] was 141.2 IU/L. It also gave a Na [3] of 140.6 meq/L, a PL [3] of 137.8 mg/dL and an RALB [3] of 3.2 g/dL. It also gave a TBIL [3] of 0.02 mg/dL, a TC [3] of 80.4 mg/dL and a TG [3] of 46.8 mg/dL. It also gave a TP [3] of 5.5 g/dL, a gamma-GTP [3] of 0.8 IU/L and a TERMINAL_BW [4] of 216 g. For the same molecule, the APTT [4] was 22 s, the Bas [4] was 0% and the Eos [4] was 0.4%. It also gave a Fbg [4] of 301.2 mg/dL, a Hb [4] of 13 g/dL and a Ht [4] of 39.9%. It also gave an MCH [4] of 20 pg, an MCHC [4] of 32.5% and an MCV [4] of 61.6 fL. The Mono [4] was 2.4%, the PT [4] was 16.6 s and the Plat [4] was 111.9 x10_4/uL. For the same molecule, the RBC [4] was 649.2 x10_4/ul, the Ret [4] was 6.6% and the WBC [4] was 91.8 x10_2/uL. The ALP [4] was 1198.6 IU/L, the ALT [4] was 38.4 IU/L and the CRE [4] was 0.1 mg/dL. The DBIL [4] was 0.004 mg/dL, the GLC [4] was 170 mg/dL and the IP [4] was 7 mg/dL. It also gave a K [4] of 4.1 meq/L, an LDH [4] of 160.6 IU/L and a Na [4] of 142.2 meq/L. It also gave a PL [4] of 131.6 mg/dL, an RALB [4] of 2.9 g/dL and a TBIL [4] of 0.012 mg/dL. It also gave a TC [4] of 80.8 mg/dL, a TG [4] of 83 mg/dL and a TP [4] of 5.3 g/dL. It also gave a gamma-GTP [4] of 1.2 IU/L, a TERMINAL_BW [5] of 218 g and an APTT [5] of 21.3 s. For the same molecule, the Bas [5] was 0%, the Eos [5] was 0.8% and the Fbg [5] was 293.2 mg/dL. It also gave a Hb [5] of 13.4 g/dL, a Ht [5] of 41.4% and an MCH [5] of 20 pg. For the same molecule, the MCHC [5] was 32.4%, the MCV [5] was 61.6 fL and the Mono [5] was 4.2%. It also gave a PT [5] of 16.2 s, a Plat [5] of 126.4 x10_4/uL and an RBC [5] of 674 x10_4/ul. For the same molecule, the Ret [5] was 7.9%, the WBC [5] was 82 x10_2/uL and the ALP [5] was 1358.2 IU/L. For the same molecule, the ALT [5] was 45.8 IU/L, the CRE [5] was 0.1 mg/dL and the DBIL [5] was 0.01 mg/dL. The GLC [5] was 194.8 mg/dL, the IP [5] was 10.1 mg/dL and the K [5] was 4 meq/L. For the same molecule, the LDH [5] was 250.2 IU/L, the Na [5] was 141.4 meq/L and the PL [5] was 132 mg/dL. For the same molecule, the RALB [5] was 3.1 g/dL, the TBIL [5] was 0.008 mg/dL and the TC [5] was 76.6 mg/dL. For the same molecule, the TG [5] was 57.8 mg/dL, the TP [5] was 5.6 g/dL and the gamma-GTP [5] was 1 IU/L. For the same molecule, the TERMINAL_BW [6] was 211.8 g, the APTT [6] was 23.9 s and the Bas [6] was 0%. The Eos [6] was 0.8%, the Fbg [6] was 304 mg/dL and the Hb [6] was 13.7 g/dL. It also gave a Ht [6] of 42.2%, an MCH [6] of 20.5 pg and an MCHC [6] of 32.4%. It also gave an MCV [6] of 63.2 fL, a Mono [6] of 2.4% and a PT [6] of 16.3 s. For the same molecule, the Plat [6] was 117.9 x10_4/uL, the RBC [6] was 668.2 x10_4/ul and the Ret [6] was 7.1%. It also gave a WBC [6] of 73.5 x10_2/uL, an ALP [6] of 1429.6 IU/L and an ALT [6] of 37.6 IU/L. It also gave a CRE [6] of 0.1 mg/dL, a DBIL [6] of 0.01 mg/dL and a GLC [6] of 207.2 mg/dL. For the same molecule, the IP [6] was 9.7 mg/dL, the K [6] was 4.3 meq/L and the LDH [6] was 182.6 IU/L. The Na [6] was 140.6 meq/L, the PL [6] was 134.2 mg/dL and the RALB [6] was 3.1 g/dL. For the same molecule, the TBIL [6] was 0.014 mg/dL, the TC [6] was 80.8 mg/dL and the TG [6] was 23.4 mg/dL. For the same molecule, the TP [6] was 5.5 g/dL, the gamma-GTP [6] was 1.2 IU/L and the TERMINAL_BW [7] was 206.5 g. The APTT [7] was 23.7 s, the Bas [7] was 0.2% and the Eos [7] was 0.6%. For the same molecule, the Fbg [7] was 299 mg/dL, the Hb [7] was 13.3 g/dL and the Ht [7] was 40.6%. For the same molecule, the MCH [7] was 20.7 pg, the MCHC [7] was 32.8% and the MCV [7] was 63.2 fL. For the same molecule, the Mono [7] was 2.2%, the PT [7] was 16.2 s and the Plat [7] was 119.4 x10_4/uL. It also gave an RBC [7] of 642.4 x10_4/ul, a Ret [7] of 7.3% and a WBC [7] of 77.1 x10_2/uL. The ALP [7] was 1243.4 IU/L, the ALT [7] was 36.6 IU/L and the CRE [7] was 0.1 mg/dL. The DBIL [7] was 0.014 mg/dL, the GLC [7] was 200.4 mg/dL and the IP [7] was 8.9 mg/dL. For the same molecule, the K [7] was 4.2 meq/L, the LDH [7] was 184 IU/L and the Na [7] was 140.6 meq/L. It also gave a PL [7] of 136 mg/dL, an RALB [7] of 3.2 g/dL and a TBIL [7] of 0.02 mg/dL. For the same molecule, the TC [7] was 79.2 mg/dL, the TG [7] was 57.4 mg/dL and the TP [7] was 5.6 g/dL. For the same molecule, the gamma-GTP [7] was 1 IU/L, the TERMINAL_BW [8] was 222.1 g and the APTT [8] was 21.6 s. The Bas [8] was 0%, the Eos [8] was 0.8% and the Fbg [8] was 290.2 mg/dL. It also gave a Hb [8] of 12.7 g/dL, a Ht [8] of 39% and an MCH [8] of 19.5 pg. For the same molecule, the MCHC [8] was 32.4%, the MCV [8] was 60.1 fL and the Mono [8] was 2.2%. The PT [8] was 16 s, the Plat [8] was 115.3 x10_4/uL and the RBC [8] was 649.8 x10_4/ul. For the same molecule, the Ret [8] was 6.8%, the WBC [8] was 94.6 x10_2/uL and the ALP [8] was 1144.8 IU/L. The ALT [8] was 40.2 IU/L, the CRE [8] was 0.1 mg/dL and the DBIL [8] was 0.014 mg/dL. The GLC [8] was 177.8 mg/dL, the IP [8] was 7.7 mg/dL and the K [8] was 3.9 meq/L. The LDH [8] was 183.4 IU/L, the Na [8] was 142.4 meq/L and the PL [8] was 149.4 mg/dL. For the same molecule, the RALB [8] was 3.1 g/dL, the TBIL [8] was 0.024 mg/dL and the TC [8] was 91 mg/dL. It also gave a TG [8] of 92.6 mg/dL, a TP [8] of 5.5 g/dL and a gamma-GTP [8] of 1 IU/L.
